Source: ChEMBL document CHEMBL5352406 (Eur J Med Chem, 2022)

Columns and labels:
[1] = Half life in Sprague-Dawley rat at 2 mg/kg, iv; assay type: ADME, organism-based; conditions: in vivo
[2] = biological target: Cyclin-Y/Cyclin-dependent kinase 16 (Homo sapiens) (UniProt Q00536+Q8ND76); assay: Inhibition of CDK16/Cyclin Y (unknown origin) at 500 nM by ADP-Glo kinase assay relative to control; assay type: protein-complex assay
HCT-116 [3] = assay: Induction of apoptosis in human HCT-116 cells assessed as viable cells at 10 nM measured after 48 hrs by Annexin V-FITC/PI assay (reference value: 88.5%); assay type: functional; conditions: read-out: Activity
[4] = Toxicity in BALB/cA-nu mouse xenografted with human HCT116 cells assessed as behavioral changes at 10 mg/kg, intragastric administration for 21 days; assay type: organism-based, HCT-116; conditions: in vivo, po, 504 h, time 21 day
HCT-116 [5] = assay: Induction of apoptosis in human HCT-116 cells assessed as late apoptotic cells at 20 nM measured after 48 hrs by Annexin V-FITC/PI assay (reference value: 6.06%); assay type: functional
HCT-116 [6] = assay: Induction of apoptosis in human HCT-116 cells assessed as early apoptotic cells at 20 nM measured after 48 hrs by Annexin V-FITC/PI assay (reference value: 3.16%); assay type: functional
HCT-116 [7] = assay: Induction of apoptosis in human HCT-116 cells assessed as necrotic cells at 20 nM measured after 48 hrs by Annexin V-FITC/PI assay (reference value: 2.31%); assay type: functional
HCT-116 [8] = assay: Cell cycle arrest in human HCT-116 cells assessed as accumulation of cells at G0-G1 phase at 20 nM measured after 48 hrs by flow cytometry (reference value: 62.18%); assay type: functional
[9] = Toxicity in BALB/cA-nu mouse xenografted with human HCT116 cells assessed as body weight changes at 10 mg/kg, intragastric administration for 21 days; assay type: organism-based, HCT-116; conditions: in vivo, po, 504 h, time 21 day
[10] = biological target: Cyclin-dependent kinase 1/cyclin B1 (Homo sapiens) (UniProt P06493+P14635); conditions: dose 500.0 nM
Description: Inhibition of CDK1/Cyclin B1 (unknown origin) at 500 nM by ADP-Glo kinase assay relative to control

[11] = Acute toxicity in Kunming mouse assessed as survival at 20 mg/kg, po measured for 2 weeks; assay type: organism-based; conditions: in vivo
HCT-116 [12] = assay: Antitumor activity against human HCT-116 cells xenografted in BALB/cA-nu mouse tumor model assessed as tumor weight growth inhibition at 10 mg/kg, intragastric administration for 21 days relative to control; assay type: functional; conditions: HCT-116, 504 h, route ig, time 21 day, read-out: TGI
HCT-116 [13] = assay: Inhibition of cell migration in human HCT-116 cells after 48 hrs by Wound healing scratch assay; assay type: functional, cell-based; conditions: dose 2-18 nM
[14] = Acute toxicity in Kunming mouse assessed as survival at 159 mg/kg, po measured for 2 weeks; assay type: organism-based; conditions: in vivo
[15] = biological target: Cyclin-C/Cyclin-dependent kinase 19 (Homo sapiens) (UniProt Q9BWU1+P24863); assay: Inhibition of CDK19/Cyclin C (unknown origin) at 500 nM by ADP-Glo kinase assay relative to control; assay type: protein-complex assay
[16] = biological target: CDK6/cyclin D1 (Homo sapiens) (UniProt P24385+Q00534); assay: Inhibition of CDK6/Cyclin D1 (unknown origin) at 500 nM by ADP-Glo kinase assay relative to control; assay type: protein-complex assay
SW480 = assay: Antiproliferative activity against human SW480 cells assessed as cell growth inhibition after 72 hrs by MTT assay; assay type: functional
[17] = AUC (0 to t) in Sprague-Dawley rat at 20 mg/kg, po; assay type: ADME, organism-based; parameters: dose 20 mg/kg, route po; conditions: in vivo
HCT-116 [18] = assay: Cell cycle arrest in human HCT-116 cells assessed as accumulation of cells at S phase at 20 nM measured after 48 hrs by flow cytometry (reference value: 31.43%); assay type: functional
[19] = biological target: CDK4/Cyclin D3 (Homo sapiens) (UniProt P11802+P30281); assay: Inhibition of CDK4/Cyclin D3 (unknown origin) at 500 nM by ADP-Glo kinase assay relative to control; assay type: protein-complex assay
[20] = AUC (0 to infinity) in Sprague-Dawley rat at 2 mg/kg, iv; assay type: ADME, organism-based; parameters: dose 2 mg/kg, route iv; conditions: in vivo
[21] = Acute toxicity in Kunming mouse assessed as survival at 69 mg/kg, po measured for 2 weeks; assay type: organism-based; conditions: in vivo
HCT-116 [22] = assay: Cell cycle arrest in human HCT-116 cells assessed as accumulation of cells at […] phase at 10 nM measured after 48 hrs by flow cytometry (reference value: 6.39%); assay type: functional
[23] = biological target: Cyclin-dependent kinase 13/Cyclin-K (Homo sapiens) (UniProt Q14004+O75909); assay: Inhibition of CDK13/Cyclin K (unknown origin) at 500 nM by ADP-Glo kinase assay relative to control; assay type: protein-complex assay
[24] = Cmax in Sprague-Dawley rat at 20 mg/kg, po; assay type: ADME, organism-based; parameters: dose 20 mg/kg, route po; conditions: in vivo
[25] = Acute toxicity in Kunming mouse assessed as survival at 105 mg/kg, po measured for 2 weeks; assay type: organism-based; conditions: in vivo
[26] = biological target: CDK3/Cyclin E (Homo sapiens) (UniProt P24864+Q00526); assay: Inhibition of CDK3/Cyclin E1 (unknown origin) at 500 nM by ADP-Glo kinase assay relative to control; assay type: protein-complex assay
[27] = Cmax in Sprague-Dawley rat at 2 mg/kg, iv; assay type: ADME, organism-based; parameters: dose 2 mg/kg, route iv; conditions: in vivo
Acetylcholinesterase = Acetylcholinesterase (Electrophorus electricus, UniProt O42275); assay: Inhibition of electric eel AChE using acetylthiocholine […] as substrate for 20 mins by Ellman's method
[28] = biological target: CDK18/Cyclin Y (Homo sapiens) (UniProt Q07002+Q8ND76); assay: Inhibition of CDK18/Cyclin Y (unknown origin) at 500 nM by ADP-Glo kinase assay relative to control; assay type: protein-complex assay
HCT-116 [29] = assay: Antiproliferative activity against human HCT-116 cells assessed as cell growth inhibition after 72 hrs by MTT assay; assay type: functional
[30] = AUC (0 to t) in Sprague-Dawley rat at 2 mg/kg, iv; assay type: ADME, organism-based; parameters: dose 2 mg/kg, route iv; conditions: in vivo
HCT-116 [31] = assay: Induction of apoptosis in human HCT-116 cells assessed as early apoptotic cells at 10 nM measured after 48 hrs by Annexin V-FITC/PI assay (reference value: 3.16%); assay type: functional
HCT-116 [32] = assay: Induction of apoptosis in human HCT-116 cells assessed as late apoptotic cells at 10 nM measured after 48 hrs by Annexin V-FITC/PI assay (reference value: 6.06%); assay type: functional
[33] = Toxicity in BALB/cA-nu mouse xenografted with human HCT116 cells assessed as liver injury by measuring ALT level at 10 mg/kg, intragastric administration for 21 days; assay type: organism-based, HCT-116; conditions: in vivo, po, 504 h, time 21 day
[34] = Toxicity in BALB/cA-nu mouse xenografted with human HCT116 cells assessed as liver injury by measuring AST level at 10 mg/kg, intragastric administration for 21 days; assay type: organism-based, HCT-116; conditions: in vivo, po, 504 h, time 21 day
HCT-116 [35] = assay: Cell cycle arrest in human HCT-116 cells assessed as accumulation of cells at […] phase at 20 nM measured after 48 hrs by flow cytometry (reference value: 6.39%); assay type: functional
[36] = biological target: Cyclin-dependent kinase 4/cyclin D1 (Homo sapiens) (UniProt P11802+P24385); assay: Inhibition of CDK4/Cyclin D1 (unknown origin) at 500 nM by ADP-Glo kinase assay relative to control; assay type: protein-complex assay
Cholinesterase = Cholinesterase (Equus caballus, UniProt P81908); assay: Inhibition of equine serum BuChE using […] as substrate for 20 mins by Ellman's method
Cholinesterase, sequence (P81908 whole entry): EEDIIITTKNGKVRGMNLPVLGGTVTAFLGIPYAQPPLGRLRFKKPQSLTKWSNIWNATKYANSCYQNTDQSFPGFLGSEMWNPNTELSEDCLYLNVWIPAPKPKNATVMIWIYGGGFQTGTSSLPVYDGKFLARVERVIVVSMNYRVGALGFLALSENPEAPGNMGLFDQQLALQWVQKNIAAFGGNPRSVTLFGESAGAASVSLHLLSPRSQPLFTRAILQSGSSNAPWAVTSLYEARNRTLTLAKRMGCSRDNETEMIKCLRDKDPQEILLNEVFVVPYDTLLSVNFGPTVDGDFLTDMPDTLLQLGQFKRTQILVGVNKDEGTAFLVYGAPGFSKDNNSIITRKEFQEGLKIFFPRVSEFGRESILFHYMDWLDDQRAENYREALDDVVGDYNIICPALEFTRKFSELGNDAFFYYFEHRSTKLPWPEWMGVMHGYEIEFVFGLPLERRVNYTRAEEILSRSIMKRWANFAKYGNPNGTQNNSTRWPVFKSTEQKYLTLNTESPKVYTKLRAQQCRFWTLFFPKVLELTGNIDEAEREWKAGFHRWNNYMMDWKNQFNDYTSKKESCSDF

Cyclin-dependent kinase 13/Cyclin-K (Homo sapiens), sequence (O75909 whole entry, looked up): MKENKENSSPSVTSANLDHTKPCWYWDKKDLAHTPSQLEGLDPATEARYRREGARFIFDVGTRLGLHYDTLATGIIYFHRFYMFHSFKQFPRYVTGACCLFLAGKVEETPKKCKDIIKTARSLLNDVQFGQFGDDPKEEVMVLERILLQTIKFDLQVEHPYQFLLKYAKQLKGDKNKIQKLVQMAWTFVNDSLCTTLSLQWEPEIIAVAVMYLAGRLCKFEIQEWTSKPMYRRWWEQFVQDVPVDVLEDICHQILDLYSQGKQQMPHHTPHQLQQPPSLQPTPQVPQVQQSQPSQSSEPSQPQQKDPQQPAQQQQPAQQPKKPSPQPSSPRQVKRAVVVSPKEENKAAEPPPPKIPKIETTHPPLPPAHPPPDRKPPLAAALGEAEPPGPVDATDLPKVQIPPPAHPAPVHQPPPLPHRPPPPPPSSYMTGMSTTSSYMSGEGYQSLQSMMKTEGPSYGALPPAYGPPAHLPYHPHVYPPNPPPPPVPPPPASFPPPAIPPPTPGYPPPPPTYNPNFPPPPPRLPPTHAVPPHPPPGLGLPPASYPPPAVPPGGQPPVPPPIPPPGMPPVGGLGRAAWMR
Cyclin-dependent kinase 13/Cyclin-K (Homo sapiens), sequence (Q14004 whole entry, looked up): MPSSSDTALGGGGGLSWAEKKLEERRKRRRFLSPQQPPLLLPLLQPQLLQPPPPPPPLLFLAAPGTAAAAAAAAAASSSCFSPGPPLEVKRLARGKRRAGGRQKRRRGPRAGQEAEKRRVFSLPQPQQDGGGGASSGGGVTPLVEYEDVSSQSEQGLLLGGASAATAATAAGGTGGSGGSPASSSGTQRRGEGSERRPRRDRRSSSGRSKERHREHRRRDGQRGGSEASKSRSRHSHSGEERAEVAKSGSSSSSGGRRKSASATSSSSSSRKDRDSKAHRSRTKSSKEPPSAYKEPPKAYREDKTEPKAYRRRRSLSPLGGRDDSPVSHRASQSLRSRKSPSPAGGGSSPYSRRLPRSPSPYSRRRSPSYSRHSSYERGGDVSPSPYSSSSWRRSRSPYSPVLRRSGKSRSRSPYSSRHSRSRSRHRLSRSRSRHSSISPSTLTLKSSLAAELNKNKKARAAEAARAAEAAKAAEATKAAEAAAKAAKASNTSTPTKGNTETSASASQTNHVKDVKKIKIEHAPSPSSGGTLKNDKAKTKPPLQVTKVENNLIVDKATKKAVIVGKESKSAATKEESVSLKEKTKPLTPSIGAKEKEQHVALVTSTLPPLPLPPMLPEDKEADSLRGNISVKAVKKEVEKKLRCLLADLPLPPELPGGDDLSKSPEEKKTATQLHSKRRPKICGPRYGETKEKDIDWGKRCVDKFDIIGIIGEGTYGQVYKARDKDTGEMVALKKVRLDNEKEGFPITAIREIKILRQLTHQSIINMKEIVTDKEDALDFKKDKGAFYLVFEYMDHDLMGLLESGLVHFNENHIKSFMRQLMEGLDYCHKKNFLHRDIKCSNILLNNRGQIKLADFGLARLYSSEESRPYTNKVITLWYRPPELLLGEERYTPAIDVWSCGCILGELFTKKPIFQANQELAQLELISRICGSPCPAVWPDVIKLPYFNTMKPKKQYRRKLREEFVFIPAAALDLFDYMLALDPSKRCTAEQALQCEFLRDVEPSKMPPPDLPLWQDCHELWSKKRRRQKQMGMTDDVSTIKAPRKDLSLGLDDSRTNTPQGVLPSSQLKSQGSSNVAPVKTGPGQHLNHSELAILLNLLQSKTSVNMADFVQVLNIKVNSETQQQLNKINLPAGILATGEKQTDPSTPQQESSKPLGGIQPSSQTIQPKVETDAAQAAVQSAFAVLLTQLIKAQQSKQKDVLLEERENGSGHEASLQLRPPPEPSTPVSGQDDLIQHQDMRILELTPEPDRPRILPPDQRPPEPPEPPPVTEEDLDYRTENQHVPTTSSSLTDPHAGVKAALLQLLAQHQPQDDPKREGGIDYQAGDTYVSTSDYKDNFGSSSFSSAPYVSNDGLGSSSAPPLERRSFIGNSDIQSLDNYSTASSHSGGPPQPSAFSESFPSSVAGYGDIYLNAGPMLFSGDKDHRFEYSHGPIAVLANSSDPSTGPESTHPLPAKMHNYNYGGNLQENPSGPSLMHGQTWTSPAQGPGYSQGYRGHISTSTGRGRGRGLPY
Acetylcholinesterase, sequence (O42275 whole entry): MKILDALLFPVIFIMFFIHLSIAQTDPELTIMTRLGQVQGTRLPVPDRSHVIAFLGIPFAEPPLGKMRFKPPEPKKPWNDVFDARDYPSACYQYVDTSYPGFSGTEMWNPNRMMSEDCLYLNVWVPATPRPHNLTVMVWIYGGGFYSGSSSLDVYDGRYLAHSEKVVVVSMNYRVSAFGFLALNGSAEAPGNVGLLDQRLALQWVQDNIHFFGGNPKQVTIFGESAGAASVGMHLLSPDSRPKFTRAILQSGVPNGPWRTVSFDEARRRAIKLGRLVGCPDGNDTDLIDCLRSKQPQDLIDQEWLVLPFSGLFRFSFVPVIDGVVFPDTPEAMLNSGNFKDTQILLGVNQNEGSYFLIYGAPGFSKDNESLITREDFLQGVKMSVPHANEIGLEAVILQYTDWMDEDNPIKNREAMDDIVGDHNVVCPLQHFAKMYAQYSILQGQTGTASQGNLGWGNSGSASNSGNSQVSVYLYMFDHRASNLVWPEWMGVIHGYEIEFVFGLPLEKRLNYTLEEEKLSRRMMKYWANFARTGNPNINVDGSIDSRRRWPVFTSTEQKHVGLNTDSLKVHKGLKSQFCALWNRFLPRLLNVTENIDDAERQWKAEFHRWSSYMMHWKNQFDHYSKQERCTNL
CDK3/Cyclin E (Homo sapiens), sequence (P24864 whole entry, looked up): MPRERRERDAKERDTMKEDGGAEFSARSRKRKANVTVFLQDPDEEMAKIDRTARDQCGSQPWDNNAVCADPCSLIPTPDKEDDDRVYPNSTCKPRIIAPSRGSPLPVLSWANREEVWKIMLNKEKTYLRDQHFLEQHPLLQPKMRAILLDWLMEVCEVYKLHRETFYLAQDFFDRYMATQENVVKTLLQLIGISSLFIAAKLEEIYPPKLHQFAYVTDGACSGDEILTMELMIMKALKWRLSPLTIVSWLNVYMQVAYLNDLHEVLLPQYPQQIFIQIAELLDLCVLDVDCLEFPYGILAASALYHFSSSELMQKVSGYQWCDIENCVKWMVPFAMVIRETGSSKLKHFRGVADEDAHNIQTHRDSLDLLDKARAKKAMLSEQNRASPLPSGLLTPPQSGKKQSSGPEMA
CDK3/Cyclin E (Homo sapiens), sequence (Q00526 whole entry, looked up): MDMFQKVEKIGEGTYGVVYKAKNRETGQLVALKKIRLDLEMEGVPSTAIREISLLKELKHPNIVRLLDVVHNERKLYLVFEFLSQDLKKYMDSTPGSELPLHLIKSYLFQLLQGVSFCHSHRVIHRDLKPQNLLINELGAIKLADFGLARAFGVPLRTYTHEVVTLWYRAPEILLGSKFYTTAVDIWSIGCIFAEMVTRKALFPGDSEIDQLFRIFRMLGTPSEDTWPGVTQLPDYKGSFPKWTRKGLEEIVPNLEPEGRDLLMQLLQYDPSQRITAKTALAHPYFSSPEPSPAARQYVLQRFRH
Cyclin-dependent kinase 1/cyclin B1 (Homo sapiens), sequence (P06493 whole entry, looked up): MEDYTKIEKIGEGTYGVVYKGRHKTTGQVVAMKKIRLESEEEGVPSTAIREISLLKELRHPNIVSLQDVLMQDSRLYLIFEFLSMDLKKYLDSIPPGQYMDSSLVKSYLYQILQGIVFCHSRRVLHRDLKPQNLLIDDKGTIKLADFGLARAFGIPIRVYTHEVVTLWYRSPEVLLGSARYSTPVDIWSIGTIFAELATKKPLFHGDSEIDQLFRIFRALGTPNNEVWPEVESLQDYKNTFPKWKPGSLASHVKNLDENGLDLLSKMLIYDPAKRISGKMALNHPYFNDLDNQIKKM
Cyclin-dependent kinase 1/cyclin B1 (Homo sapiens), sequence (P14635 whole entry, looked up): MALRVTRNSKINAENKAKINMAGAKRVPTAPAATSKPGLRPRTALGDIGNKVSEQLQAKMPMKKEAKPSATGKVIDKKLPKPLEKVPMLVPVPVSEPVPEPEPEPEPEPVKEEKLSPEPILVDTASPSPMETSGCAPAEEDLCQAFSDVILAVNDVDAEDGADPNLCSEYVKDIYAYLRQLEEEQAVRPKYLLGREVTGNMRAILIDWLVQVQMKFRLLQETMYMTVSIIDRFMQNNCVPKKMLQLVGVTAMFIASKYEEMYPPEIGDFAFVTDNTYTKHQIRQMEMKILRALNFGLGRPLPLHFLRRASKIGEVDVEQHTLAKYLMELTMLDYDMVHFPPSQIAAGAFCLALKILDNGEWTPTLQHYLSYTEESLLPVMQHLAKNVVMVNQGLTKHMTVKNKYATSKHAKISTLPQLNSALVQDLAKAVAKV

Cl.N[C@H]1CCN(c2c3c(nc4ccc(-c5ccnc(NC(=O)C6CC6)n5)cc24)CCCCC3)C1
half-life [1]: 27.7 min | inhibition [2]: 76.1% | viability at 0.01 µM (HCT-116 [3]): 74% | Activity [4]: Non-Toxic | Activity (HCT-116 [5]): 13.6% | Activity (HCT-116 [6]): 32.6% | Activity (HCT-116 [7]): 1.23% | Activity (HCT-116 [8]): 37.51% | Activity [9]: Non-Toxic | inhibition [10]: 77.3% | survival at 336 h [11]: 100% | inhibition in vivo at 10 mg/kg (HCT-116 [12]): 62.4% | inhibition (HCT-116 [13]): Dose-Dependent Effect | survival at 336 h [14]: 0% | inhibition [15]: 12.9% | inhibition [16]: 22.1% | GI50 (SW480): 13 nM | AUC(0-t) [17]: 302 ng·h/mL | Activity (HCT-116 [18]): 49.38% | inhibition [19]: 29.4% | AUC(0-inf) [20]: 115 ng·h/mL | survival at 336 h [21]: 100% | Activity (HCT-116 [22]): 10.6% | inhibition [23]: 80.9% | Cmax [24]: 67.8 ng/mL | survival at 336 h [25]: 50% | inhibition [26]: 65.5% | Cmax [27]: 206 ng/mL | IC50 (Acetylcholinesterase): 19000 nM | inhibition [28]: 68.1% | GI50 (HCT-116 [29]): 6 nM | AUC(0-t) [30]: 110 ng·h/mL | Activity (HCT-116 [31]): 16.3% | Activity (HCT-116 [32]): ~7.47% | Activity [33]: Non-Toxic | Activity [34]: Non-Toxic | Activity (HCT-116 [35]): 13.11% | inhibition [36]: 31.6% | IC50 (Cholinesterase): 2770 nM
